Results reported in patent US20240299400A1, “Transcription Factor GLI1 Inhibitors and Uses Thereof” (University of Connecticut, priority 2023, published 2024).
Like-named read-outs stand apart in the source and are kept apart here.

Key:
GLI1 mRNA expression = test: RT-qPCR GLI1 mRNA expression in ASZ001 BCC cells; format: cell-based, mouse; details: Mus musculus, Ave ± SEM, read-out: RT-qPCR, IC50 ASZ001
DAOY (MB) = test: MTS anti-proliferative assay in DAOY cells; format: cell-based; details: Homo sapiens, Daoy; Table 8, 48 h, mean ± SEM
DYRK2 = molecular target: T1, DYRK2 (Homo sapiens, UniProt Q92630); test: LanthaScreen binding assay, DYRK2; details: average of three replicates, read-out: % inhibition of the kinase DYRK2
T1 construct: purchased ThermoFisher Scientific (Madison, WI, USA), contract service
T1 sequence (Q92630 1-601): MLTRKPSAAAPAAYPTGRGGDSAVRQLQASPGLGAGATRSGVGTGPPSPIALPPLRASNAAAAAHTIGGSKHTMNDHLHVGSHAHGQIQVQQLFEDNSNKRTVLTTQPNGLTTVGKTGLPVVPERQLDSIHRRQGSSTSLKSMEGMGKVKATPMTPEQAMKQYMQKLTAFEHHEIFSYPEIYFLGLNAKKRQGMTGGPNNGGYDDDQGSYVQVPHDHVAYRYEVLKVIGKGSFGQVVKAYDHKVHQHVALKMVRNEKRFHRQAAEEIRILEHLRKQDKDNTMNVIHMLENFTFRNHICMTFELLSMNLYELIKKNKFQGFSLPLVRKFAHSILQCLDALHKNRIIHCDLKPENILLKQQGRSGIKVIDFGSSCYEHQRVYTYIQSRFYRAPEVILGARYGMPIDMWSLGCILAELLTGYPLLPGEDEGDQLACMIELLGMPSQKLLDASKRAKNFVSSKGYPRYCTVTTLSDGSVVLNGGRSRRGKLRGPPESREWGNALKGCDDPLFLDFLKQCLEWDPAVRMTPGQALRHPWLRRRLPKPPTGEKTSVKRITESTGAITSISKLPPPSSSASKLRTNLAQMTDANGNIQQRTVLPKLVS
Description: (§1) Kinase screening experiments. Kinase inhibition/binding experiments were performed by ThermoFisher Scientific (Madison, WI, USA) as a contract service, utilizing their default protocols [G. Yernale, A comprehensive review on the biological interest of quinoline and its derivatives. Bioorg. Med. Chem. 32 (2021) 115973]. Briefly, for ZLyte assay, compound in DMSO (100 nL), kinase buffer (2.4 μL), peptide/kinase mixture (5 μL), and ATP solution (2.5 μL) were mixed in a black 384-well plate. Following a 30 s plate shake to mix reagents, the kinase assay mixture was incubated at RT for 60 min. Following addition of the development reagent solution to each well, another 60 min incubation was performed at RT for reaction development. Fluorescent signal was recorded and subsequently analyzed.
(§2) For the LanthaScreen Binding assay, compounds in DMSO (160 nL), kinase buffer (3.84 μL), kinase/antibody mixture (8.0 μL), and tracer (4.0 μL) were mixed in a white 384-well plate. Following a 30 s plate shake to mix the reagents, the kinase assay mixture was incubated at RT for 60 min. Fluorescent signals were recorded and subsequently analyzed.

TGFBR1 = molecular target: T2, TGFBR1 (Homo sapiens, UniProt P36897); test: LanthaScreen binding assay, TGFBR1; details: average of three replicates, read-out: % inhibition of the kinase TGFBR1
T2 construct: purchased ThermoFisher Scientific (Madison, WI, USA), contract service
T2 sequence (P36897 34-503): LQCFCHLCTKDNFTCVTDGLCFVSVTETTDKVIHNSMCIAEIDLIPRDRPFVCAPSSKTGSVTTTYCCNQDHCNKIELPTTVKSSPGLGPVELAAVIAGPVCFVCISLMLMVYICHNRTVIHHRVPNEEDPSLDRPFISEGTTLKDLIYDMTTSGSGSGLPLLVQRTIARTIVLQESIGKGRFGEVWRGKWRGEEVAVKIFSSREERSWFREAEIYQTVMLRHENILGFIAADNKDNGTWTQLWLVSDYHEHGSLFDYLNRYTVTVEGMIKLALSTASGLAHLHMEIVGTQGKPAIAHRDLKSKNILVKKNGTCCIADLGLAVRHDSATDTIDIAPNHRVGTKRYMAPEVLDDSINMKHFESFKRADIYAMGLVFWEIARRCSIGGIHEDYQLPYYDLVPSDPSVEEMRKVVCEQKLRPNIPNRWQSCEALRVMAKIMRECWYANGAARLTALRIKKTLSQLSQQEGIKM
Description: as §1, §2

CSNK1A1 = molecular target: T3, CSNK1A1 (Homo sapiens, UniProt P48729); test: ZLyte kinase assay, CSNK1A1; format: biochemical; details: average of three replicates
T3 construct: purchased ThermoFisher Scientific (Madison, WI, USA), contract service
T3 sequence (P48729 whole entry): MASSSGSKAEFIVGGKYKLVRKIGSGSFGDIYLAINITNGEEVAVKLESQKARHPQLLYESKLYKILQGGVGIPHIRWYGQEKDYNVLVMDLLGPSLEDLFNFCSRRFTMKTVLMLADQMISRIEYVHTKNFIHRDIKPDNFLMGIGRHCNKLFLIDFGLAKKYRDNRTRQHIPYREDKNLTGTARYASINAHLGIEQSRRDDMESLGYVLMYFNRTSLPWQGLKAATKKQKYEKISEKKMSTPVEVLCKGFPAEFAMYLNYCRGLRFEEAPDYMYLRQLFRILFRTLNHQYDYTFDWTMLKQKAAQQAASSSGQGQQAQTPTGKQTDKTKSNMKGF
Description: as §1

PDGFRA = molecular target: T4, PDGFRA (Homo sapiens, UniProt P16234); test: ZLyte kinase assay, PDGFRA; format: biochemical; details: average of three replicates
T4 construct: purchased ThermoFisher Scientific (Madison, WI, USA), contract service
T4 sequence (P16234 24-1089): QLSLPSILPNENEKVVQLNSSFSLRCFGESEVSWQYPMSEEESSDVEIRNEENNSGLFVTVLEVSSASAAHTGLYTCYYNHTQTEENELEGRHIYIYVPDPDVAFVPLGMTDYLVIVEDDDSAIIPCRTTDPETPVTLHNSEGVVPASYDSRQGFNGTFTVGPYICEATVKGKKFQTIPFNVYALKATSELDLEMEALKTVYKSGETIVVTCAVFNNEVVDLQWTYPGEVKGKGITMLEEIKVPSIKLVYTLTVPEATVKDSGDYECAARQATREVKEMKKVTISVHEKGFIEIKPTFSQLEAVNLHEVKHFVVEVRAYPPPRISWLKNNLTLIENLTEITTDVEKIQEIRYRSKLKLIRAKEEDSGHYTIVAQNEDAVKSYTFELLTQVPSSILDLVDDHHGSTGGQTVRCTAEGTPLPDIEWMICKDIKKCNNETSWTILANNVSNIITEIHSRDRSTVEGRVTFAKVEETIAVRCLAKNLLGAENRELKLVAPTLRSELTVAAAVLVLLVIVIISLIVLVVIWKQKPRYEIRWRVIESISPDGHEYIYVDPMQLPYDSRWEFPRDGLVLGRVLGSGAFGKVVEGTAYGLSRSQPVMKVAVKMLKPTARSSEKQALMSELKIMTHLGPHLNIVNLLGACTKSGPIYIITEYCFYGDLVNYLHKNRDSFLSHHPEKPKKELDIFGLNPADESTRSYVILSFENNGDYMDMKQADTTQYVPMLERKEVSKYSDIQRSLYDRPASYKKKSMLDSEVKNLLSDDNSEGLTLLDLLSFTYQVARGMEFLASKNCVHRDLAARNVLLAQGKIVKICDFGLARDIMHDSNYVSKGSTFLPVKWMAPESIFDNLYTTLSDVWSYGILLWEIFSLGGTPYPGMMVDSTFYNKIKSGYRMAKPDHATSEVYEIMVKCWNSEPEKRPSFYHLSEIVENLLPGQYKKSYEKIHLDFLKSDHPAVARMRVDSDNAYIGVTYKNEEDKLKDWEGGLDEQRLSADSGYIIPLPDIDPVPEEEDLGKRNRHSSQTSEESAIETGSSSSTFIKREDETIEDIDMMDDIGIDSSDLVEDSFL
Description: as §1

RET = molecular target: T5, RET (Homo sapiens, UniProt P07949); test: ZLyte kinase assay, RET; format: biochemical; details: average of three replicates
T5 construct: purchased ThermoFisher Scientific (Madison, WI, USA), contract service
T5 sequence (P07949 29-1114): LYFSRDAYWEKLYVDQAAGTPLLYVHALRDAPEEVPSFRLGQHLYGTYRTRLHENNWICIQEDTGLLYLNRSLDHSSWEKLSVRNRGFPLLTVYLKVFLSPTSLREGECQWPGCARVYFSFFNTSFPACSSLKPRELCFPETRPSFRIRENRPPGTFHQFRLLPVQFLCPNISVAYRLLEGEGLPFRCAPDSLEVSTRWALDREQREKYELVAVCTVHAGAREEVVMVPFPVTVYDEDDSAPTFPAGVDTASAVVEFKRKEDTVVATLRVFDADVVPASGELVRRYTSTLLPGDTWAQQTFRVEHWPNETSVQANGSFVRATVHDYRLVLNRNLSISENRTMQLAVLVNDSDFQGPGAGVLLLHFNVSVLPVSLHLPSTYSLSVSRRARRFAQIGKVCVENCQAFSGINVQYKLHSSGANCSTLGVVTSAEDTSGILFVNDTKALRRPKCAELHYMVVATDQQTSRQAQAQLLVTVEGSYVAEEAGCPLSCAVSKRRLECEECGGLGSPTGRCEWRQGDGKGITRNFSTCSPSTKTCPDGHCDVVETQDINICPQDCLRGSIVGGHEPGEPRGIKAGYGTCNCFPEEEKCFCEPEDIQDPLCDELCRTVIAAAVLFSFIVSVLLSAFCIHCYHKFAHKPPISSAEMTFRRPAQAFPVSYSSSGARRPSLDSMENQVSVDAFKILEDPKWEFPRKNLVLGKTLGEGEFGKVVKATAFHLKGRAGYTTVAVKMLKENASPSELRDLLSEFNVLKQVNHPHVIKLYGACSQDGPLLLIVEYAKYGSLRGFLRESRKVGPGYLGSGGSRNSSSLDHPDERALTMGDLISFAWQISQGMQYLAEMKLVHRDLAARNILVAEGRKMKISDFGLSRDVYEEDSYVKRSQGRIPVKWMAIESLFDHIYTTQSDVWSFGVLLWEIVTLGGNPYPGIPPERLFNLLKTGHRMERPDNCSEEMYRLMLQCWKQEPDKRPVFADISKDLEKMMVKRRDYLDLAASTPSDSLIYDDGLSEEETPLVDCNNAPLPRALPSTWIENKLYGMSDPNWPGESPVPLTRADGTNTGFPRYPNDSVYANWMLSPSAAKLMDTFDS
Description: as §1

SRC kinase = molecular target: T6, SRC kinase (Homo sapiens, UniProt P12931); test: ZLyte kinase assay, SRC; format: biochemical; details: for inhibition at 1 µM: ZLyte, average of three replicates; for concentration-dependent inhibition of SRC kinase (in words): FIG. 6, representative experiment in triplicate
T6 construct: purchased ThermoFisher Scientific (Madison, WI, USA), contract service
T6 sequence (P12931 whole entry): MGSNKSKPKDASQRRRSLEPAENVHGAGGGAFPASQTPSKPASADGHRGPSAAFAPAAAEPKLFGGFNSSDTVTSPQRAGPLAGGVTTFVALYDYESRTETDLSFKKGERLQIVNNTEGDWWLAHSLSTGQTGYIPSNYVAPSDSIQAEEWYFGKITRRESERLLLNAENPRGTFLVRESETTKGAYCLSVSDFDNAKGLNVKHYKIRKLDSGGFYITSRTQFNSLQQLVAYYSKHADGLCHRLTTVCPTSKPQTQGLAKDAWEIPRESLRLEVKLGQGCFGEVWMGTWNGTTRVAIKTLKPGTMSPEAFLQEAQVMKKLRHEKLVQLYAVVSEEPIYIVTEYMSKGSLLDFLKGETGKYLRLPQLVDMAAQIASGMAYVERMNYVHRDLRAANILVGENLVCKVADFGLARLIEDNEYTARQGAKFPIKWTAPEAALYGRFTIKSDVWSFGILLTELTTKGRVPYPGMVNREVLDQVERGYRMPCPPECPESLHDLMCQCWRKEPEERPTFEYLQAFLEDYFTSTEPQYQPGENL
Description: as §1

IC50 (GLI1 mRNA expression; ASZ001, Table 5, GLI1 mRNA)	inhibition at 1 µM (DYRK2)	inhibition at 1 µM (TGFBR1)	inhibition at 1 µM (CSNK1A1)	inhibition at 1 µM (PDGFRA)	inhibition at 1 µM (RET)	inhibition at 1 µM (SRC kinase)	IC50 (GLI1 mRNA expression; ASZ001, Table 7, GLI1 mRNA)	SMILES	GI50 (DAOY (MB))	concentration-dependent inhibition of SRC kinase (in words) (SRC kinase)
1300 ± 300 nM	-2%	6%	4%	0%	6%	45%		CCN(CC)c1ccc(C(Nc2ccccn2)c2ccc3ccc(C)nc3c2OC)cc1 (stereo not drawn) [Compound 20, N-((4-Diethylaminophenyl)(8-methoxy-2-methylquinolin-7-yl)methyl)pyridin-2-amine]	> 100 µM	inhibit SRC kinase in a concentration-dependent fashion
	-4%	2%	3%	0%	8%	46%	1900 ± 500 nM	Cc1ccc2ccc(C(Nc3ccccn3)c3ccncc3)c(O)c2n1 (stereo not drawn) [Compound 39, 7-((Pyridin-4-yl)(pyridin-2-ylamino)methyl)-2-methylquinolin-8-ol]	1.2 ± 0.2 µM	inhibit SRC kinase in a concentration-dependent fashion
	-1%	-2%	6%	1%	5%	39%	610 ± 340 nM	Cc1ccc2ccc(C(Nc3ccccn3)c3ccc(N4CCCC4=O)cc3)c(O)c2n1 (stereo not drawn) [Compound 48, 7-((4-(2-Oxopyrrolidin-1-yl)phenyl)(pyridin-2-ylamino)methyl)-2-methylquinolin-8-ol]	25 ± 2.3 µM	inhibit SRC kinase in a concentration-dependent fashion
